Entries after “also recorded” stand apart in the source; their conditions may differ.
How the values were obtained:
[1] = test system: MDA-MB-231 triple negative breast cancer cell line; assay: MTT cytotoxicity assay, MDA-MB-231; type: cell-based; conditions: 12 h incubation, normalized to TRAIL, GraphPad Prism
Procedure: (§1) Herein, a panel of triple negative breast cancer (TNBC) cell lines, MDA-MB-231, HCC-38, and BT-549, were used.
(§2) Triple negative breast cancer cell lines MDA-MB-231, HCC-38, and BT-549 cell lines (provided by Prof. Ruth Keri, Case Western Reserve University) and HER-2 amplified breast cancer cell line SK-BR-3 (ATCC). MDA-MB-231, HCC-38, BT-549, and SK-BR-3 were cultured in Dulbecco's modified Eagle's medium (DMEM) and Roswell Park Memorial Institute (RPMI) 1640 medium without or with insulin (0.023 IU/mL final concentration), and McCoy's 5A medium, respectively. All media were supplemented with 10% (v/v) fetal bovine serum (FBS) and 1% (v/v) penicillin/streptomycin. All cells were maintained at 37° C. and 5% CO2.
(§3) Cells (MDA-MB-231, HCC-38, BT-549, and SK-BR-3) were seeded at 5,000 cells per well in culture medium in 96-well plates 1 day prior to treatment. […] Samples were prepared in triplicate and each assay was performed at least twice. […] Following incubation, cells were washed with PBS, pH 7.4 and fresh medium was replenished; then 10 μL MTT reagent was added as per manufacturer's instructions. Absorbance was determined using the Tecan infinite-M200 plate reader.

HCC-38 cell line (TNBC) = assay: MTT cytotoxicity assay, HCC-38; type: cell-based; conditions: 12 h incubation, normalized to TRAIL, GraphPad Prism
Procedure: as §1, §2, §3

caspase-3/7 = assay: Caspase-Glo 3/7 assay in MDA-MB-231 cells; type: cell-based; conditions: 20 ng/mL HisTRAIL, 3 h
From the text: (§4) TRAIL-DR4/5 receptor binding activates caspase-dependent apoptosis. Specifically, TRAIL-DR4/5 receptor binding induces receptor oligomerization, followed by the recruitment of FAS-associated protein with death domain (FADD) and pro-caspase-8 to form a functional death-inducing signaling complex (DISC) at the plasma membrane. Subsequently, caspase-8 is activated and released into the cytosol, where it cleaves and activates caspase-3 or -7 to execute the apoptosis in cancer cells (FIG. 4). […] The drugs were incubated with MDA-MB-231 cells for 3 h before adding reagents from Caspase-Glo 8 and Caspase-Glo 3/7 Assay Kit. The assay was performed as per manufacturer's instructions.
(§5) Determination of levels of activated caspase-8 and caspase-3/7 MDA-MB-231 cells were seeded at 5,000 cells per well in a white-walled 96-well luminometer microplate one day prior to treatment. […] Non-treated cells were used as control. Samples were prepared in triplicate. Caspase-Glo 8 assay kit and Caspase-Glo 3/7 assay kit (Promega) were used to determine the level of activated caspases. Briefly, the reagent causes cell lysis, followed by caspase cleavage of the substrate and aminoluciferin which produces a luminescent signal in the presence of luciferase and ATP from the kit. Luminescence was read by the Tecan infinite-M200 plate reader to determine the proportional activated level of caspase 8- and 3/7.

caspase-8 = assay: Caspase-Glo 8 assay in MDA-MB-231 cells; type: cell-based; conditions: 20 ng/mL HisTRAIL, 3 h
From the text: as §4, §5

[2] = test system: SK-BR-3, HER2-amplified breast cancer cell line; assay: MTT cytotoxicity assay, SK-BR-3; type: cell-based; conditions: HER-2 amplified breast cancer cell line
Procedure: Data are expressed as means±SD.
as §1, §2, §3

[3] = test system: subcutaneous MDA-MB-231 tumors; assay: Treatment of MDA-MB-231 xenografts in athymic nude mice; type: in vivo, mouse
Procedure: FIGS. 3(A-C) are graphs and images illustrating treatment of MDA-MB-231 xenografts in an athymic nude mouse model. 6-week-old female NCR nu/nu mice were injected subcutaneously into the right flank with 2×10^6 cells; treatment began when tumor volume reached 100-150 mm^3, approximately 2 weeks after tumor cell inoculation. […] 20 μL PBS or corresponding particle amount of PVXNi were injected as controls. Tumor volume was normalized at the initial day. Data were expressed as expressed as means+SD. (A) Tumor growth curve during treatment. (B) Tumor volume distribution in each group during treatment. (C) Representative of isolated tumor tissues after treatment.
Treatment started when the tumor volume reached 100-150 mm^3. […] While we envision systemic administration for clinical applications, we started here by evaluating intratumoral treatments to focus on the question as to whether PVX-delivered HisTRAIL would outperform free HisTRAIL; the intratumoral treatment allows one to precisely control and match the dosing, and, thus, eliminates confounding factors from varying biodistribution. […]
The animal study was carried using an IACUC-approved protocol. […] Tumors were measured daily and the volume was calculated using the formula v=(l×w^2)/2, where l is the length and w is the width of tumor. […] All results are expressed as means±SD, calculated by GraphPad Prism. […]

BT-549 cell line (TNBC) = assay: MTT cytotoxicity assay, BT-549; type: cell-based; conditions: 12 h incubation, normalized to TRAIL, GraphPad Prism
Procedure: as §1, §2, §3

[4] = background statement; cited from earlier work

Substance	IC50 values, MDA-MB-231 [1] [ng/mL]	IC50 values, MDA-MB-231 ([1]; listed as HiTRAIL) [ng/mL]	IC50 values, HCC-38 (HCC-38 cell line (TNBC)) [ng/mL]	caspase 3/7 increase vs. PBS controls (caspase-3/7) [fold]	level of caspase 8, increase compared to PBS control (caspase-8) [fold]	cell killing / apoptosis induction in SK-BR-3 [2]	average relative tumor volume increase vs. starting volume ([3]; day 30 post first treatment, intratumoral every 2 days, 5 μg His-TRAIL/injection (PVX-Ni at corresponding particle amount)) [fold]	tumor growth inhibition (in words) ([3]; intratumoral, athymic nude mice with MDA-MB-231 tumors, vs PBS control)	IC50 values, BT-549 (BT-549 cell line (TNBC)) [ng/mL]	potency compared to cisplatin, carboplatin and oxalatoplatin [4] [×]
HisTRAIL: Recombinant human TRAIL (aa 114-281) with N-terminal His-tag and thrombin cleavage sequence, expressed in ClearColi BL21(DE)3	86.6	86.8	367.2	1.5	1.38	Neither PVX-HisTRAIL nor HisTRAIL did induce apoptosis; also recorded: did not show cell killing efficacy	2.53	effective inhibition	543.0	
phenanthriplatin										40

From patent publication US12251410B2, “Anticancer trail-targeted plant virus particles” (CASE WESTERN RESERVE UNIVERSITY, priority 2017, dated 2025)
